# Entries after “also recorded” stand apart in the source; their conditions may differ. Structures can show the parent of a compound that is named as a salt.
# Assays:
# Format in all cases: in vivo, human
# [1] = system: refractory solid tumors and lymphoma; experiment: Anti-tumor response (RECIST 1.0 / Revised Response Criteria for Malignant Lymphoma), safety extension phase
# Procedure: (§1) All patients who entered the safety extension phase were evaluated with a physical examination, vital signs, laboratory tests, concomitant drugs, ECG at a 4-week follow-up visit, tumor measurements and imaging studies at 4- to 8-week intervals.
# (§2) All observed AEs were graded using the CTCAE, version 3.0 (NCI 2003). Imaging studies of involved disease sites were repeated every 4 to 8 weeks in patients who entered the safety extension phase. All lesion assessments, whether by physical examination or radiologic methods, were repeated by the same methods at least 4 weeks following the initial observation of an objective response for response confirmation. Responses were recorded based on Response Evaluation Criteria in Solid Tumors, version 1.0 (RECIST 1.0), and Revised Response Criteria for Malignant Lymphoma.
# [2] = Steady-state plasma pharmacokinetics of enzastaurin and metabolites in native Chinese cancer patients (LC-MS/MS, noncompartmental)
# Procedure: Then, the study drug ceased for three days (days 15 to 17) and resumed on day 18, after the last PK sample was obtained. During the study, dosing occurred at approximately the same time of day for each individual patient.
# Nominal collection times were day 14 predose and 1, 2, 4, 6, 8, 10, 24, 48, 72, and 96 h postdose. […] The actual sampling time was accurately recorded for analysis.
# Pharmacokinetic parameters were calculated using noncompartmental methods of analysis using WinNonlin (Pharsight Corp., Cary, NC, USA). […] Total plasma analyte AUCτ, ss and Cav ss were calculated by summing the respective AUCτ, ss or Cav, ss estimates for each of the 4 individual analytes. Total plasma analyte Cmax was reported as the highest sum of individual analyte concentrations at any given sampling time during a concentration-time profile, not the sum of the Cmax of each analyte. […] The AUC was calculated by a combination of linear and logarithmic trapezoidal methods. The linear trapezoidal method was employed up to tmax, and the log trapezoidal method was then used for data after tmax. PK measurements were calculated based on the actual collection times. Patients with insufficient data were excluded from the analysis.
# [3] = Safety: adverse events graded by CTCAE v3.0 in native Chinese cancer patients
# Procedure: Eligibility assessments, which consisted of a complete medical history, physical examination, ECOG performance status, vital sign measurements, concomitant drugs, ECG, laboratory tests, one or more relevant radiologic test(s) for tumor measurement (computed tomography scan, magnetic resonance imaging, X-ray, or bone scan) and tumor measurement of palpable or visible lesions, were conducted within 28 days before the lead-in day. Lead-in day (within 7 days before treatment initiation) assessments included physical examination, ECOG performance status, vital sign measurements, concomitant drugs, ECG (at 0 and 4 h) and laboratory tests.
# ECGs were performed 4 h after treatment on days 1 and 2. Patients received the same assessments on day 14 as on the lead-in day, except that ECGs were performed predose (0 h) and 4 h postdose. Blood samples for PK were collected from days 14 to 18. After retreatment for 2 to 4 weeks from day 18, patients were re-evaluated to determine whether they should continue in the safety extension phase or washout prior to withdrawal from the study.
# as §1, §2
# [4] = of 9 non-Hodgkin lymphoma patients
# [5] = of 10 evaluated lymphoma patients
smiles,measurement,setting,value
"Cn1cc(C2=C(c3cn(C4CCN(Cc5ccccn5)CC4)c4ccccc34)C(=O)NC2=O)c2ccccc21 [enzastaurin, Enzastaurin monohydrochloride]",NHL patients who achieved a partial response,[1]; [4],1
same,NHL patients who achieved stable disease,[1]; [4],4
same,NHL patients with complete response on enzastaurin maintenance therapy after salvage chemotherapy,[1]; [4],1
same,Lymphoma patients with progressive disease,[1]; [5],three
same,Lymphoma patients with stable disease,[1]; [5],five
same,Duration of stable disease,[1]; one Hodgkin lymphoma patient,22.1 months
same,Duration of stable disease,[1]; one follicular lymphoma patient,25.2 months
same,Duration of partial response,[1]; one patient with relapsed DLBCL,8.1 months
same,Disease-free time on enzastaurin after complete response following salvage chemotherapy,"[1]; one patient with relapsed DLBCL, still on drug at last follow-up",30 months
same,Activity in advanced/metastatic solid tumors,[1]; overall judgement,poor activity
same,Efficacy against lymphoma,[1]; overall judgement,limited efficacy
same,Time of treatment at which partial response was observed,"[1]; relapsed DLBCL patient, PET-CT",1.8 months
same,"Cav, ss","[2]; 500 mg orally once daily, steady state, geometric mean (% CV), N = 23","1,210 nmol/L"
same,"Cav, ss","[2]; 500 mg orally once daily, steady state, geometric mean (% CV), N = 23, listed as Enzastaurin",1210 (128) nmol/L
same,Cmax,"[2]; human, plasma, po, 500 mg",2370 nM
same,Tmax,"[2]; human, plasma, po, 500 mg, 500 mg orally once daily, steady state, median and range, N = 23",≤ 4 h
same,AUC,"[2]; human, plasma, po, 500 mg orally once daily, steady state, one dosing interval, geometric mean (% CV), N = 23",29.1 µM·h
same,half-life,"[2]; human, plasma, po, 500 mg orally once daily, washout days 15-17, geometric mean and range, N = 21",14 h
same,Tolerability,"[3]; 500 mg daily, Chinese patients",well tolerated with minimal toxicity
same,Deaths or serious adverse events during the study,[3]; 500 mg once daily,No deaths or other serious adverse events; also recorded: Neither drug-related deaths nor serious AEs were reported
same,Discontinuation because of an AE,[3]; 500 mg once daily,No patients discontinued because of an AE; also recorded: No patient withdrew from the study because of toxicity
same,Patients reporting at least 1 AE (percent),[3]; PK phase,80%
same,"Patients reporting at least 1 AE, drug related",[3]; PK phase,14
same,Patients reporting at least 1 AE,"[3]; PK phase, 25 patients treated",20 patients
same,"Number of patients with drug-related abdominal pain, grade 0","[3]; maximum grade 0, n = 25",22
same,"Number of patients with drug-related anemia, grade 0","[3]; maximum grade 0, n = 25",24
same,"Number of patients with drug-related chromaturia, grade 0","[3]; maximum grade 0, n = 25",22
same,"Number of patients with drug-related diarrhea, grade 0","[3]; maximum grade 0, n = 25",24
same,"Number of patients with drug-related fatigue, grade 0","[3]; maximum grade 0, n = 25",24
same,"Number of patients with drug-related increased ALT, grade 0","[3]; maximum grade 0, n = 25",22
same,"Number of patients with drug-related increased AST, grade 0","[3]; maximum grade 0, n = 25",23
same,"Number of patients with drug-related insomnia, grade 0","[3]; maximum grade 0, n = 25",24
same,"Number of patients with drug-related leukopenia, grade 0","[3]; maximum grade 0, n = 25",23
same,"Number of patients with drug-related lymphocytopenia, grade 0","[3]; maximum grade 0, n = 25",23
same,"Number of patients with drug-related nausea, grade 0","[3]; maximum grade 0, n = 25",24
same,"Number of patients with drug-related neutropenia, grade 0","[3]; maximum grade 0, n = 25",24
same,"Number of patients with drug-related thrombocytopenia, grade 0","[3]; maximum grade 0, n = 25",24
same,"Number of patients with drug-related QT prolongation, grade 0","[3]; maximum grade 0, n = 25, 500 mg daily",21
same,"Number of patients with drug-related abdominal pain, grade 1","[3]; maximum grade 1, n = 25",3
same,"Number of patients with drug-related anemia, grade 1","[3]; maximum grade 1, n = 25",1
same,"Number of patients with drug-related chromaturia, grade 1","[3]; maximum grade 1, n = 25",3
same,"Number of patients with drug-related fatigue, grade 1","[3]; maximum grade 1, n = 25",1
same,"Number of patients with drug-related increased ALT, grade 1","[3]; maximum grade 1, n = 25",3
same,"Number of patients with drug-related increased AST, grade 1","[3]; maximum grade 1, n = 25",2
same,"Number of patients with drug-related leukopenia, grade 1","[3]; maximum grade 1, n = 25",1
same,"Number of patients with drug-related lymphocytopenia, grade 1","[3]; maximum grade 1, n = 25",1
same,"Number of patients with drug-related nausea, grade 1","[3]; maximum grade 1, n = 25",1
same,"Number of patients with drug-related neutropenia, grade 1","[3]; maximum grade 1, n = 25",1
same,"Number of patients with drug-related thrombocytopenia, grade 1","[3]; maximum grade 1, n = 25",1
same,"Number of patients with drug-related QT prolongation, grade 1","[3]; maximum grade 1, n = 25, 500 mg daily",1
same,"Number of patients with drug-related diarrhea, grade 2","[3]; maximum grade 2, n = 25",1
same,"Number of patients with drug-related insomnia, grade 2","[3]; maximum grade 2, n = 25",1
same,"Number of patients with drug-related leukopenia, grade 2","[3]; maximum grade 2, n = 25",1
same,"Number of patients with drug-related lymphocytopenia, grade 2","[3]; maximum grade 2, n = 25",1
same,"Number of patients with drug-related QT prolongation, grade 2","[3]; maximum grade 2, n = 25, 500 mg daily",2
same,"Number of patients with drug-related QT prolongation, grade 3","[3]; maximum grade 3, n = 25, 500 mg daily",1
same,Patients who experienced grade 3 AEs,"[3]; regardless of causality, CTCAE",7 patients
same,Patients who experienced a grade 4 AE,"[3]; regardless of causality, neutropenia considered caused by leukemia",1
same,Patients reporting at least 1 AE (percent),[3]; safety extension phase,53.3%
same,"Patients reporting at least 1 AE, drug related",[3]; safety extension phase,5
same,Patients reporting at least 1 AE,"[3]; safety extension phase, 15 patients",8 patients

# From article PMC4951311 (Oncotarget, 2016)
